# Data reported in patent US5424303A, “Substituted aminophosphonate derivatives, process for their preparation and pharmaceutical compositions containing them” (Symphar SA, priority 1992, dated 1995).
# Experiments:
# [1] = system: lipid peroxidation (rat liver homogenate); assay: Antioxidant activity, inhibition of iron induced lipid peroxidation in liver homogenate; type: biochemical, Wistar rat; settings: FeSO4, 37° C., 2 h; <25 μM where IC50 was not determined
# Description: The liver of a Wistar rat anesthetized with ether was collected and homogenized in 4 volumes of phosphate buffer (+4° C., pH 7.4) by means of a Potter. After centrifugation at 2000 rpm for 10 min the supernatant obtained was kept at +4° C. Lipid peroxidation was carried out in presence of FeSOhd according to the method described by A. T. Quitaniha et at, Ann.
# The mixture contained 1.7 ml phosphate buffer, 0.2 ml homogenate and 0.1 ml of a 2 mM FeSO4 solution. The test compounds were added in a volume of 61 μl of ethanol or DMSO. Oxydation was carried out at 37° C. for 2 h and was stopped by the addition of 20 μl of 2% ethanolic solution of BHT.
# plasma cholesterol = assay: Hypocholesterolemic activity, plasma cholesterol in mice fed test compound in diet; type: in vivo, OF1 strain mice; settings: for change in vivo at 180 mg/kg/day: Mus musculus, feed or water, 240 h, read-out: Plasma Cholesterol (% Control), 0.1% compound in food, 10 days, ca. 180 mg/kg daily, mouse; for decrease plasma cholesterol by: 0.1% in food; for plasma cholesterol values as compared to control: same experimental conditions, reference drugs
# Description: A. Hypocholesterolemic activity
# Mouse fed a normal diet is a convenient model which was proposed by several authors (P. Olivier et al, Atherosclerosis 70, 107-114, 1988) ,for the screening for hypocholesterolemic drugs. OF1 strain mice (Iffa Credo) weighing between 25 and 35 g were divided into 5 groups of 5 animals each, four groups received the test compounds and the fifth group served as control. The test compounds were dissolved in diethyl ether. The ether solution was added to food to obtain a final concentration of 0.1%. compound in food. Ether was then evaporated at room temperature. The animals were fed for 10 days, the dally food intake corresponds to ca. 180 mg/kg. After an overnight fast, they were sacrificed by decapitation under ether anesthesia. Blood samples were collected using EDTA as anticoagulant.
# Plasma cholesterol was measured by an enzymatic test (DIAMED, Morat, Switzerland). The mean values of each group receiving the test or reference compounds were expressed as percent of mean value of the contemporary control.
SMILES,IC50 [1] [µM],change in vivo at 180 mg/kg/day (plasma cholesterol) [%],also measured
"CCOP(=O)(OCC)C(NC1(c2ccccc2)CCCC1)c1cc(C(C)(C)C)c(O)c(C(C)(C)C)c1 (stereo not drawn) [Compound 45, Diethyl α-(3,5-di-tert-butyl-4-hydroxyphenyl)-N-(1-phenylcyclopentyl)-aminomethylphosphonate]",< 25,-14,–
CCOP(=O)(OCC)C(NCc1ccccc1)c1cc(C(C)(C)C)c(O)c(C(C)(C)C)c1 (stereo not drawn) [Compound 12],0.7,-23,–
"CCOP(=O)(OCC)C(NC(=O)OCc1ccccc1)c1cc(C(C)(C)C)c(O)c(C(C)(C)C)c1 (stereo not drawn) [Compound 85, Diethyl α-(3,5-di-tert-butyl-4-hydroxyphenyl)-N-benzyloxycarbonyl-aminomethylphosphonate]",–,0,–
"CCOP(=O)(OCC)C(c1cc(C(C)(C)C)c(O)c(C(C)(C)C)c1)N(CCCc1ccccc1)C(=O)C(F)(F)F (stereo not drawn) [Compound 64, Diethyl α-(3,5-di-tert-butyl-4-hydroxyphenyl)-N-trifluoroacetyl-N-(3-phenylpropyl)-aminomethylphosphonate]",< 25,–,–
CCOP(=O)(OCC)C(Nc1cccnc1)c1cc(C(C)(C)C)c(O)c(C(C)(C)C)c1 (stereo not drawn) [Compound 41],3.5,-35,–
"CCOP(=O)(OCC)C(Cc1cc(C(C)(C)C)c(O)c(C(C)(C)C)c1)NCCCc1ccccc1 (stereo not drawn) [Compound 68, Diethyl α-(3,5-di-tert-butyl-4-hydroxybenzyl)-N-(3-phenylpropyl)-aminomethylphosphonate]",< 25,-18,–
CCOP(=O)(OCC)C(NCCc1ccccc1)c1cc(C(C)(C)C)c(O)c(C(C)(C)C)c1 (stereo not drawn) [Compound 13],4.9,-28,–
CCOP(=O)(OCC)C(NC(C)CCc1ccccc1)c1cc(C(C)(C)C)c(O)c(C(C)(C)C)c1 (stereo not drawn) [Compound 30],15.6,-12,–
CCCCOP(=O)(OCCCC)C(c1cc(C(C)(C)C)c(O)c(C(C)(C)C)c1)N(CCc1ccc(Cl)cc1)C(=O)C(F)(F)F (stereo not drawn) [Compound 55],> 25,–,–
"CCOP(=O)(OCC)C(NCCc1ccccn1)c1cc(C(C)(C)C)c(O)c(C(C)(C)C)c1 (stereo not drawn) [Compound 43, Diethyl α-(3,5-di-tert-butyl-4-hydroxyphenyl)-N-[2-(2-pyridyl)-ethyl]aminomethyl-phosphonate]",< 25,-35,"decrease plasma cholesterol by (plasma cholesterol; mouse, 10 days): more than 30%"
CC(C)OP(=O)(OC(C)C)C(NCCCc1ccccc1)c1cc(C(C)(C)C)c(O)c(C(C)(C)C)c1 (stereo not drawn) [Compound 24],< 25,-22,–
"CCOP(=O)(OCC)C(NCCc1ccccc1)c1cc(C(C)CC)c(O)c(C(C)CC)c1 (stereo not drawn) [Compound 73, Diethyl α-(3,5 di-sec-butyl-4-hydroxyphenyl)-N-(2-phenylethyl) aminomethylphosphonate]",2.9,-40,"decrease plasma cholesterol by (plasma cholesterol; mouse, 10 days): more than 30%"
CCOP(=O)(OCC)C(NC(Cc1ccccc1)c1ccccc1)c1cc(C(C)(C)C)c(O)c(C(C)(C)C)c1 (stereo not drawn) [Compound 33],< 25,-14,–
"Cc1cc(C(C)(C)C)c(O)c(C(C)(C)C)c1 [BHT, 2,6-di-tert-butyl-4-methylphenol, reference compound]",5,–,hypocholesterolemic activity (in words) (plasma cholesterol; this model (mouse)): no hypocholesterolemic activity
CCOP(=O)(OCC)C(c1cc(C(C)(C)C)c(O)c(C(C)(C)C)c1)N(Cc1ccccc1)C(=O)C(F)(F)F (stereo not drawn) [Compound 52],< 25,–,–
COP(=O)(OC)C(c1cc(C(C)(C)C)c(O)c(C(C)(C)C)c1)N(CCCc1ccccc1)C(C)=O (stereo not drawn) [Compound 59],< 25,-36,–
CCOP(=O)(OCC)C(c1cc(C(C)(C)C)c(O)c(C(C)(C)C)c1)N(CCCCc1ccccc1)C(=O)C(F)(F)F (stereo not drawn) [Compound 66],< 25,–,–
CCOP(=O)(OCC)C(NCCc1ccc(Cl)cc1)c1ccc(O)cc1 (stereo not drawn) [Compound 76],> 25,-16,–
CCCCOP(=O)(OCCCC)C(c1cc(C(C)(C)C)c(O)c(C(C)(C)C)c1)N(CCCc1ccccc1)C(C)=O (stereo not drawn) [Compound 63],< 25,4,–
"CCOC(=O)C(C)(C)Oc1ccc(Cl)cc1 [Clofibrate, reference compound]",–,–,plasma cholesterol values as compared to control (plasma cholesterol; mouse): +4%
"CCOP(=O)(OCC)C(NCCCc1ccccc1)c1cc(C(C)(C)C)c(O)c(C(C)(C)C)c1 (stereo not drawn) [Compound 22, Diethyl α-(3,5-di-tert-butyl-4-hydroxyphenyl)-N-(3-phenytpropyl)aminomethylphosphonate]",4,–,"Plasma Cholesterol (% Control) (plasma cholesterol; 0.1% compound in food, 10 days, ca. 180 mg/kg daily, mouse): -53 % Control; decrease plasma cholesterol by (plasma cholesterol; mouse, 10 days): more than 30%"

SMILES,IC50 [1] [µM],change in vivo at 180 mg/kg/day (plasma cholesterol) [%],also measured
"CCOP(=O)(OCC)C(NCCCc1ccccc1)c1ccc2c(c1)OCO2 (stereo not drawn) [Compound 80, Diethyl α-(3,4t-methylenedioxyphenyl)-N-(3-phenylpropyl)-aminomethylphosphonate]",> 25,-29,–
"CCOP(=O)(OCC)C(NC(C)c1ccccc1)c1cc(C(C)(C)C)c(O)c(C(C)(C)C)c1 (stereo not drawn) [Compound 29, Diethyl α-(3,5-di-tert-butyl-4-hydroxyphenyl)-N-(1-phenylethyl)-aminomethyldiphosphonate]",5.5,-32,"decrease plasma cholesterol by (plasma cholesterol; mouse, 10 days): more than 30%"
"CCOP(=O)(OCC)C(NCCCc1ccccc1)c1cc(C(C)(C)C)c(OC)c(C(C)(C)C)c1 (stereo not drawn) [Compound 67, Diethyl α-(3.5-di-tert-butyl-4-methoxyphenyl)-N-(3-phenylpropyl)-aminomethylphosphonate]",> 25,-22,–
"CCOP(=O)(OCC)C(N)c1cc(C(C)(C)C)c(O)c(C(C)(C)C)c1 (stereo not drawn) [Compound 83, Diethyl α-(3,5-di-tert-butyl4-hydroxyphenyl)-aminomethyl-phosphonate]",–,4,–
CCOP(=O)(OCC)C(Nc1cccc(C)c1)c1cc(C(C)(C)C)c(O)c(C(C)(C)C)c1 (stereo not drawn) [Compound 8],< 25,–,–
CCCCOc1ccc(C(NCCc2ccccc2)P(=O)(OCC)OCC)cc1 (stereo not drawn) [Compound 69],–,2,–
"CCOP(=O)(OCC)C(NCc1cc(C(C)(C)C)c(O)c(C(C)(C)C)c1)c1cc(C(C)(C)C)c(O)c(C(C)(C)C)c1 (stereo not drawn) [Compound 40, Diethyl α-(3,5-di-tert-butyl-4-hydroxyphenyl)-N-(3,5-di-tert-butyl-4-hydroxybenzyl)-aminomethylphosphonate]",–,-25,–
"CC(C)OC(=O)C(C)(C)Oc1ccc(C(=O)c2ccc(Cl)cc2)cc1 [Fenofibrate, reference compound]",–,–,plasma cholesterol values as compared to control (plasma cholesterol; mouse): -26%
CCOP(=O)(OCC)C(c1cc(C(C)(C)C)c(O)c(C(C)(C)C)c1)N(CCc1ccccc1)C(=O)C(F)(F)F (stereo not drawn) [Compound 54],< 25,–,–
"C=CCNC(c1cc(C(C)(C)C)c(O)c(C(C)(C)C)c1)P(=O)(OCC)OCC (stereo not drawn) [Compound 84, Diethyl α-(3,5-di-tert-butyl-4-hydroxyphenyl)-N-allyl-aminomethylphosphonate]",–,-19,–
CCOP(=O)(OCC)C(c1cc(C(C)(C)C)c(O)c(C(C)(C)C)c1)N(CCc1ccccc1)C(C)=O (stereo not drawn) [Compound 53],< 25,–,–
CCOP(=O)(OCC)C(NCCN1CCCCC1)c1cc(C(C)(C)C)c(O)c(C(C)(C)C)c1 (stereo not drawn) [Compound 34],–,-5,–
CCCCCc1ccc(N(C(=O)C(F)(F)F)C(c2cc(C(C)(C)C)c(O)c(C(C)(C)C)c2)P(=O)(OCC)OCC)cc1 (stereo not drawn) [Compound 58],< 25,–,–
CCOP(=O)(OCC)C(c1cc(C(C)(C)C)c(O)c(C(C)(C)C)c1)N(C(=O)C(F)(F)F)C(Cc1ccccc1)c1ccccc1 (stereo not drawn) [Compound 56],< 25,–,–
CCOP(=O)(OCC)C(NCc1ccncc1)c1cc(C(C)(C)C)c(O)c(C(C)(C)C)c1 (stereo not drawn) [Compound 86],–,-15,–
"Cc1ccc(C)c(OCCCC(C)(C)C(=O)O)c1 [Gemfibrozil, reference compound]",–,–,plasma cholesterol values as compared to control (plasma cholesterol; mouse): -7%
CCOP(=O)(OCC)C(c1cc(C(C)(C)C)c(O)c(C(C)(C)C)c1)N(CCOc1ccccc1)C(=O)C(F)(F)F (stereo not drawn) [Compound 57],< 25,–,–
CCOP(=O)(OCC)C(c1cc(C(C)(C)C)c(O)c(C(C)(C)C)c1)N(Cc1ccccc1)C(C)=O (stereo not drawn) [Compound 51],< 25,–,–
CCOP(=O)(OCC)C(NC1COC(C)(C)OC1c1ccccc1)c1cc(C(C)(C)C)c(O)c(C(C)(C)C)c1 (stereo not drawn) [Compound 91],–,-18,–
CCOP(=O)(OCC)C(Nc1ccc(N2C(=O)c3ccc(Cl)cc3C2=O)c(C)c1)c1cc(C(C)(C)C)c(O)c(C(C)(C)C)c1 (stereo not drawn) [Compound 11],2.7,–,–
